# Results taken from patent publication US10323044B2, “Crystal of imidazo-oxazine, pharmaceutical composition containing said crystal, and method for producing said crystal” (TAIHO PHARMACEUTICAL CO., LTD., priority 2015, dated 2019).
# Test: Solid stability test (storage stability; powder X-ray diffraction and HPLC analog amount)
# Assay type: physicochemical
# Conditions: 40° C. (hermetically sealed), six months, brown glass bottle
# Protocol: Powder X-ray diffraction was performed by lightly pulverizing an appropriate amount of a test substance using an agate mortar as necessary, and measuring the test substance in accordance with the following test conditions.
# The storage stability of crystal I of the imidazooxazine compound obtained in accordance with Example 1 was tested after six months of storage at 40° C.
# Storage condition: 40° C. (hermetically sealed)
# Measurement point: Six months
# Container: Brown glass bottle
# The powder X-ray diffraction of the sample after storage was measured using the method described above. Alternations in analog amount were analyzed by HPLC according to the following manner.
# Method for preparing a sample solution: the sample was dissolved in 50% acetonitrile so that the concentration of the sample became 0.5 mg/mL.
# Column: Acentis express C18, 4.6×150 mm, 2.7 μm,
# Column temperature: 40° C.
# Column flow rate: 1.5 mL/min
# Mobile phase: A; 0.1% phosphate, B; acetonitrile
compound,measurement,setting,value
"C[C@]1(O)C[C@@](N)(c2ccc(-c3nc4n(c3-c3ccccc3)COc3ccncc3-4)cc2)C1 [crystal I, trans-3-amino-1-methyl-3-(4-(3-phenyl-5H-imidazo[1,2-c]pyrido[3,4-e][1,3]oxazin-2-yl)phenyl)cyclobutanol]",changes in powder X-ray diffraction pattern after storage,,not observed
same,amount of analogs (HPLC) after storage,HPLC UV 210 nm,not increased
